One may read the pIC50 as the negative decadic logarithm of the IC50, by convention in mol/L.

pIC50: −log10 of the molar value. “And” between values parts separate entries of the source, which are not always exact repeats. Equal values may be shown once.

The first test deals with Balb/cByJ mice. The experiment in a line: monoclonal antibody (mAb) type II collagen induced arthritis. In kind it is in vivo, mouse. Conditions: 3 mg/kg×3, PO, day 5. How it is done:
This Example illustrates the anti-inflammatory activity of the compounds of this invention using a model of Balb/c mice subjected to monoclonal antibody (mAb) type II collagen induced arthritis.
A compound of this invention is dissolved in vehicle of 2% Tween 80/0.9% NaCl, at doses of 50 or 30 and administered orally (50 mg/kg) or intraperitoneally at 30 mg/kg once daily for 3 consecutive days after monoclonal antibody of collagen was injected. Dosing volume is 20 ml/kg.
Groups of 5 Balb/cByJ mice strain, 6-8 weeks of age, are used for the induction of arthritis by monoclonal antibodies (mAbs) responding to type II collagen, plus lipopolysaccharide (LPS). The animals are administered intravenously with a combination of 4 different mAbs (D8, F10, DI-2G and A2) in total of 4 mg/mouse at day 0, and followed by intravenous 25 μg of LPS 72 hours later (day 3). From day 3, one hour after LPS administration, ML-659 at 50 mg/kg (PO) or 30 mg/kg (IP) and vehicle (2% Tween 80/0.9% NaCl, PO) as well as the positive control indomethacin, 3 mg/kg (PO) are administrated once daily for 3 consecutive days. A plethysmometer (Ugo Basile Cat # 7150) with water cell (12 mm diameter) is used for the measurement of increase in volume of the two hind paws at day 0, 5, 7, 10, 14, and 17. The percent inhibition of increase in volume is calculated by the following formula: Inhibition (%): [1−(Tn−To)/(Cn−Co)]×100 Where: Co (Cn): volume of day 0 (day n) in vehicle control To (Tn): volume of day 0 (day n) in test compound-treated group The reduction of both of two hind paws edema by more than 30% is considered significant.
Consider `COc1ccc2c(c1)c(CC(=O)O)c(C)n2C(=O)c1ccc(Cl)cc1` [indomethacin], for which the “effect relative to the vehicle treated group (hind paws edema)” value turned out to be 63%.

Staying with this test, now noted: 3 mg/kg×3, PO, day 7.
Consider `COc1ccc2c(c1)c(CC(=O)O)c(C)n2C(=O)c1ccc(Cl)cc1` [indomethacin], for which the “effect relative to the vehicle treated group (hind paws edema)” value came to 70%.

The test is the same for the next values; noted with them: 3 mg/kg×3, PO, day 10.
On to `COc1ccc2c(c1)c(CC(=O)O)c(C)n2C(=O)c1ccc(Cl)cc1` [indomethacin], for which the “effect relative to the vehicle treated group (hind paws edema)” value is on record as 80%.

Still in this test, the particulars now being: 3 mg/kg×3, PO, day 14.
Consider `COc1ccc2c(c1)c(CC(=O)O)c(C)n2C(=O)c1ccc(Cl)cc1` [indomethacin], for which the “effect relative to the vehicle treated group (hind paws edema)” value came to 88%.

Staying with this test, now noted: 3 mg/kg×3, PO, day 17.
For `COc1ccc2c(c1)c(CC(=O)O)c(C)n2C(=O)c1ccc(Cl)cc1` [indomethacin], the “effect relative to the vehicle treated group (hind paws edema)” value is listed as 85%.

A further test concerns the target T1, P2X7 (Homo sapiens, UniProt Q99572).
T1 sequence (Q99572 1-595): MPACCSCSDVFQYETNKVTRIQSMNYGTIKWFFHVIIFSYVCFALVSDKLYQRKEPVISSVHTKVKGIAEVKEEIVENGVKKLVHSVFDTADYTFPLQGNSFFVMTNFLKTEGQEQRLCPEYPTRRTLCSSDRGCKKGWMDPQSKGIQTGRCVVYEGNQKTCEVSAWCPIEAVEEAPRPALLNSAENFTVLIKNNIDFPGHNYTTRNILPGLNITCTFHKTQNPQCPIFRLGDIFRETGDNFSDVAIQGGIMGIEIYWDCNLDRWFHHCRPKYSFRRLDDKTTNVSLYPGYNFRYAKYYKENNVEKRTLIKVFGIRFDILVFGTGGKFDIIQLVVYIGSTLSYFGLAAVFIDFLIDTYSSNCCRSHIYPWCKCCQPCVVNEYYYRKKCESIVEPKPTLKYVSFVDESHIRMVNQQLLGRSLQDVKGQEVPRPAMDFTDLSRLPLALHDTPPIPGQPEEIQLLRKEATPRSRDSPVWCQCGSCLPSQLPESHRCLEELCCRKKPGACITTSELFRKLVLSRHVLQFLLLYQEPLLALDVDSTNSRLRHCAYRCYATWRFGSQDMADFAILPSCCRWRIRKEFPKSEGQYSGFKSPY
The test is described as follows: YO-PRO-1 dye uptake assay in U373 cells stably expressing P2X7. In kind it is cell-based. On the set-up: The complete open reading frame of human P2X7 was amplified from Incyte clone 148057; expressed in transfected cells. Conditions: dye uptake through P2X7, U373 cells, 300 μM BzATP, 5 μM YO-PRO-1, test compounds 30 nM to 3 μM; read-out: IC50. In outline: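 U373 cells stably expressing human P2X7 preincubated 20 min at 37° C. with compound (30 nM to 3 μM) in Mg/Ca-free HBSS. YO-PRO-1 (5 μM final) and BzATP (300 μM final) then added for 1.5 h at 37° C.; dye-uptake fluorescence compared with compound-free control.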
`Clc1ccc(CC2=N[C@@H](c3ccccc3)[C@@H](c3ccccc3)N2)cc1` [cis-4,5-diphenyl-2-(4-chlorobenzyl)-4,5-dihydro-1H-imidazole]: the negative logarithm of the IC50 (pIC50) was 6.57. `Clc1ccc(CNC2=N[C@@H](c3ccccc3)[C@@H](c3ccccc3)N2)cc1` [cis-4,5-diphenyl-2-(4-chlorobenzyl)amino-4,5-dihydro-1H-imidazole]: the negative logarithm of the IC50 (pIC50) was 6.33. Still for that read-out and setting: the result for `Fc1ccc(CC2=N[C@H](c3ccccc3)[C@H](c3ccccc3)N2)cc1` [cis-4,5-diphenyl-2-(4-fluorobenzyl)-4,5-dihydro-1H-imidazole] reads 7.34.

For the molecule `Fc1ccc(CSC2=N[C@@H](c3ccccc3)[C@@H](c3ccccc3)N2)cc1` [cis-4,5-diphenyl-2-(4-fluorobenzyl)thio-4,5-dihydro-1H-imidazole], the negative-log IC50 (pIC50) is 6.52. For the molecule `Cc1ccc(CC2=N[C@H](c3ccccc3)[C@H](c3ccccc3)N2)cc1` [cis-4,5-diphenyl-2-(4-methylbenzyl)-4,5-dihydro-1H-imidazole], the pIC50 was 7.08 and 7.10. As for `COC(C1=N[C@@H](c2ccccc2)[C@@H](c2ccccc2)N1)c1ccccc1` (stereo partly drawn) [cis-4,5-diphenyl-2-(methoxy-phenyl-methyl)-4,5-dihydro-1H-imidazole], the pIC50 is 7.00. Take `c1ccc([C@H]2NC(CCc3ccccn3)=N[C@H]2c2ccccc2)cc1` [cis-4,5-diphenyl-2-[2-(2-pyridyl)ethyl)-4,5-dihydro-1H-imidazole]: the pIC50 is 6.14. On to `Fc1ccc(CCNC2=N[C@@H](c3ccccc3)[C@@H](c3ccccc3)N2)cc1` [cis-4,5-diphenyl-2-[2-(4-fluorophenyl)ethylamino]-4,5-dihydro-1H-imidazole], for which the pIC50 is 6.48. For `c1ccc(CCOCC2=N[C@@H](c3ccccc3)[C@@H](c3ccccc3)N2)cc1` [cis-4,5-diphenyl-2-[(2-phenethyloxy)methyl]-4,5-dihydro-1H-imidazole], the pIC50 is 6.11. For `c1ccc(CCNC2=N[C@@H](c3ccccc3)[C@@H](c3ccccc3)N2)cc1` [cis-4,5-diphenyl-2-[(2-phenyl)ethyl]amino-4,5-dihydro-1H-imidazole], the pIC50 is 6.95.

Take `Fc1ccc(CNC2=N[C@@H](c3ccccc3)[C@@H](c3ccccc3)N2)cc1F` [cis-4,5-diphenyl-2-[(3,4-difluorobenzyl)amino]-4,5-dihydro-1H-imidazole]: the pIC50 was 7.19. In the case of `c1ccc(CNC2=N[C@@H](c3ccccc3)[C@@H](c3ccccc3)N2)cc1` [cis-4,5-diphenyl-2-benzylamino-4,5-dihydro-1H-imidazole], the pIC50 is 6.87. Regarding `c1ccc(COCC2=N[C@@H](c3ccccc3)[C@@H](c3ccccc3)N2)cc1` [cis-4,5-diphenyl-2-benzyloxymethyl-4,5-dihydro-1H-imidazole], the negative-log IC50 (pIC50) is 6.49. Same read-out and setting: the result for `c1ccc(CSC2=N[C@@H](c3ccccc3)[C@@H](c3ccccc3)N2)cc1` [cis-4,5-diphenyl-2-benzylthio-4,5-dihydro-1H-imidazole] reads 6.67; that for `c1ccc(OCC2=N[C@@H](c3ccccc3)[C@@H](c3ccccc3)N2)cc1` [cis-4,5-diphenyl-2-phenoxymethyl-4,5-dihydro-1H-imidazole], 6.21; that for `OC(C1=N[C@@H](c2ccccc2)[C@@H](c2ccccc2)N1)c1ccccc1` (stereo partly drawn) [cis-(4,5-diphenyl-4,5-dihydro-1H-imidazol-2-yl)-phenyl-methanol], 6.62. As for `C[C@@H](C1=N[C@@H](c2ccccc2)[C@@H](c2ccccc2)N1)c1ccccc1` [trifluoroacetate], the pIC50 was 6.97.

`C[C@H](C1=N[C@@H](c2ccccc2)[C@@H](c2ccccc2)N1)c1ccccc1` [trifluoroacetate]: the pIC50 was 6.96.

As to `Cc1ccc(CC2=N[C@@H](c3ccccc3)[C@@H](c3ccccc3)N2)cc1F` [trifluoroacetate], the pIC50 is 6.75. Consider `Cc1ccc(F)c(CC2=N[C@@H](c3ccccc3)[C@@H](c3ccccc3)N2)c1F` [trifluoroacetate], for which the negative logarithm of the IC50 (pIC50) was 6.23.

With `Cc1ccc(F)cc1CC1=N[C@@H](c2ccccc2)[C@@H](c2ccccc2)N1` [trifluoroacetate], the negative logarithm of the IC50 (pIC50) was 6.50.

`Fc1c(Cl)cccc1CC1=N[C@@H](c2ccccc2)[C@@H](c2ccccc2)N1` [trifluoroacetate]: the pIC50 is 6.85. On to `Fc1ccc(CC2=N[C@@H](c3ccccc3)[C@@H](c3ccccc3)N2)c(Cl)c1` [trifluoroacetate], for which the negative logarithm of the IC50 (pIC50) was 6.92. Take `Fc1ccc(F)c(CC2=N[C@@H](c3ccccc3)[C@@H](c3ccccc3)N2)c1` [trifluoroacetate]: the pIC50 was 6.85. For `Fc1cccc(Cl)c1CC1=N[C@@H](c2ccccc2)[C@@H](c2ccccc2)N1` [trifluoroacetate], the pIC50 was 6.08. For the molecule `Fc1cccc(F)c1CC1=N[C@@H](c2ccccc2)[C@@H](c2ccccc2)N1` [trifluoroacetate], the negative-log IC50 (pIC50) was 6.02. As to `O=C(Nc1ccccc1)OC(C1=NC(c2ccccc2)C(c2ccccc2)N1)c1ccccc1` (stereo not drawn) [trifluoroacetate], the pIC50 is 6.20. Take `c1ccc([C@H]2NC(C3(c4ccccc4)CC3)=N[C@H]2c2ccccc2)cc1` [trifluoroacetate]: the negative-log IC50 (pIC50) was 6.48.

The values are drawn from patent US7741493B2, “Heterocyclic compounds as P2X7 ion channel blockers” (Aventis Pharmaceuticals Inc., priority 2003, dated 2010).
